The record followed here is patent publication US20240033321A1, “PULSATIVE GNRH ADMINISTRATION FOR TREATING FOOD INTAKE RELATED DISORDERS” (INSTITUT NATIONAL DE LA SANTÉ ET DE LA RECHERCHE MÉDICALE, priority 2020, published 2024).

Test [1] in a line: Pulsatile Lutrelef delivery by minipump in a Gnrh::Cre; iBot sensitive (overlean) male mouse. It is filed as in vivo, mice. The settings on record: one sensitive male (n=1), one pulse every 3 h.
Test [2] can be described thus: Pulsatile Lutrelef delivery by minipump in Gnrh::Cre; iBot sensitive (overweight) female mice. It counts as in vivo. Conditions: sensitive females.
Test [3] can be described thus: Pulsatile Lutrelef infusion by subcutaneous programmable mini-pump in obese and lean mice, food intake followed daily. It counts as in vivo. Conditions: 14 days. The method, then: Adult lean and obese male mice were housed under specific pathogen-free conditions in a temperature-controlled room (21-22° C.) with a 12 h light/dark cycle. Animals were provided with ad libitum access to food and water. The body weight of the animals and their food intake were followed on a daily base. Animal studies were approved by the Institutional Ethics Committee for the Care and Use of Experimental Animals of the University of Lille; all experiments were performed in accordance with the guidelines for animal use specified by the European Union Council Directive of Sep. 22, 2010 (2010/63/EU). […] To restore a control/lean pattern of GnRH/LH release in obese mice, we next implanted subcutaneous programmable mini-pumps that delivered either Lutrelef (0.25 μg of GnRH per pulse over 10 min given every 3 h) or vehicle to the mice (i.e., the pattern of secretion found in lean mice). Lutrelef is a native GnRH peptide that is clinically used to successfully treat hypogonadotropic infertility (23,24). The regimen was given for 14-days, during which body weight and food intake were followed daily.

Molecules are shown by their SMILES.

As to `CC(C)C[C@H](NC(=O)CNC(=O)[C@H](Cc1ccc(O)cc1)NC(=O)[C@H](CO)NC(=O)[C@H](Cc1c[nH]c2ccccc12)NC(=O)[C@H](Cc1cnc[nH]1)NC(=O)[C@@H]1CCC(=O)N1)C(=O)N[C@@H](CCCNC(=N)N)C(=O)N1CCC[C@H]1C(=O)NCC(N)=O` [Lutrelef], the bodyweight entry in test [1] (15 days (FIG. 11A)) was “fully rescues bodyweight”; in test [2] (one pulse every 2 h, 15 days (FIG. 10A)), “decreased body weight”. Besides, the “increase in food intake” value in test [1] (15 days (FIGS. 11B, 11C)) was 15%. Moreover, in test [2] (dark phase (feeding period) (FIG. 10B)), the “substrate use from RER data” value is listed as “restores the use of carbohydrates during the dark phase”. Also, in test [2] (one pulse every 2 h, 15 days (FIGS. 10B, 10C)), the “respiratory exchange ratio (RER)” value is recorded as “normalised”. Besides, the food intake result in test [2] (one pulse every 2 h, 15 days (FIGS. 10D, 10E)) is “normalised”. Moreover, the “amount of food eaten” value in test [3] (lean mice, same pulsatile regimen, compared with vehicle-infused littermates (FIG. 9)) was “no observable effect”. For the same compound, in test [3] (obese male mice, 0.25 μg of GnRH per pulse over 10 min every 3 h, compared with lean mice (FIG. 9)), the cumulative food intake result is “normalised their cumulative food intake to levels comparable with lean mice”.
